Assay [1] relates to intraocular pressure in alpha-chymotrypsin-induced ocular hypertensive rabbit eyes. Put plainly: Alpha-chymotrypsin-induced ocular hypertension, maximum intraocular pressure drop. It counts as in vivo, New Zealand White rabbits. The procedure:
This is done by the direct injection of the proteolytic enzyme, alpha-chymotrypsin into the posterior chamber of the rabbit eye.
Ocular hypertension is elicited in New Zealand White rabbits (2.0-2.5 kg) by the injection of alpha-chymotrypsin into the posterior chamber as described by Sears and Sears (Am. J. Ophthalmol. 77, 378-383, (1974). Briefly, the animals are pretreated with indomethacin (10 mg/kg i.p.) to prevent the otherwise immediate onset of inflammation. One hour later, the rabbits are anesthetized with a 2 ml intramuscular injection of a 50:50 mixture of xylazine (20 mg/kg) and ketamine (100 mg/kg). The eyes are individually proptosed and treated topically with 50 microliters of 0.5% proparacaine. The anterior chamber is cannulated with a 30-gauge needle attached to a reservoir set at a pressure of 25 mmHg. Then, 0.5 ml of alpha-chymotrypsin (350 units) is injected through the pupil near the limbus and into the posterior chamber using an S-curved, 30-gauge needle. During the injection, the tip of the needle is swept across the posterior chamber to distribute the enzyme. Care is taken to avoid injection of any enzyme into the corneal stroma. Both needles can then be carefully removed to prevent any significant loss of aqueous humor.
The eyes are examined biweekly for corneal lacerations and overt inflammatory responses. […] The intraocular pressures of the operated rabbits are checked approximately four weeks posttreatment. […]. Generally, about 50% of the operated eyes are suitable for study. Intraocular pressure is measured with a standard instrument and the results are expressed in terms of maximum (over measurment time) percentage drop of intraocular pressure.

For another assay, the target named is carbonic anhydrase B (Homo sapiens, UniProt P00915). Put plainly: Carbonic anhydrase esterase inhibition (spectrophotometric rate of hydrolysis of 1 mM p-nitrophenyl acetate). It counts as biochemical. As to conditions: read-out: Carbonic Anhydase Esterase Inhibition IC50. The procedure: It is generally known that carbonic anhydrase inhibitors are useful for the treatment of glaucoma. The carbonic anhydrase inhibitory activities have been evaluated by spectrophotometrically measuring the rate of hydrolysis of 1 mM p-nitrophenyl acetate catalyzed by carbonic anhydrase B according to the procedure described in J. Armstrong et al., J. Biol. Chem., Vol 241, No. 21, pp 5137-5149 (1966).
Sequence of carbonic anhydrase B (P00915 2-261 limits assumed): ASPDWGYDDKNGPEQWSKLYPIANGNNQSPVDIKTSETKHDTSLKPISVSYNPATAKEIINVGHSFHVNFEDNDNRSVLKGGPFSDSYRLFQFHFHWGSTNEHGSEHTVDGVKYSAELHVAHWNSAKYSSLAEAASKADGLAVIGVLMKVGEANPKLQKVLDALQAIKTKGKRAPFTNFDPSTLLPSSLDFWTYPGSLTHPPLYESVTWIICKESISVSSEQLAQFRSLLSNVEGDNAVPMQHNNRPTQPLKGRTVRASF

In the case of `CC(C)(C)NC[C@H](O)COc1nsnc1N1CCOCC1` [Timolol, reference compound], the “Maximum Intraocular Pressure Drop” value was 27.5% in assay [1] (at 0.5%) and 28.0% in assay [1] (at 1.0%).

A word on the IC50: it is the point on the concentration scale where inhibition reaches its midpoint. With `NS(=O)(=O)c1nc(-c2ccccc2Cl)ns1` [3-(2-Chlorophenyl)-1,2,4-thiadiazole-5-sulfonamide], the “Maximum Intraocular Pressure Drop” value in assay [1] (at 0.3%) came out at 24.8%. Besides, at carbonic anhydrase B, the IC50 came to 270 nM.

On to `COC(=NS(=O)(=O)c1nc(-c2ccccc2Cl)ns1)C(C)C` [N-(1-Methoxy-2-methylpropylidene)-3-(2-chlorophenyl)-1,2,4-thiadiazole-5-sulfonamide], for which the “Maximum Intraocular Pressure Drop” value in assay [1] (at 0.3%) turned out to be 13%; in assay [1] (at 3%), 26%. The IC50 on carbonic anhydrase B is 400 nM.

The record behind these values is patent US4985450A, “Arylthiadiazolylsulfonamides and derivatives” (priority 1989, dated 1991).
